According to patent US10357483B2, “Methods comprising dosing combinations for reducing undesired humoral immune responses” (Selecta Biosciences, Inc., priority 2013, dated 2019):

Columns and labels:
huTNFaTg [1] = assay: Anti-HUMIRA antibody titers in arthritic animals (Example 9); type: in vivo, mice; settings: 60 μg HUMIRA s.c. weekly; 0.87 mg nanocarriers with first 7 injections; FIG. 9A day 21
Protocol: (§1) Transgenic animals overexpressing human tumor necrosis factor alpha (huTNFaTg) develop progressive rheumatoid arthritis over the course of 20 weeks from birth. This process can be prevented by using the fully human anti-human TNFα antibody HUMIRA/adalimumab. However, repetitive administration of the initial therapeutic dose of HUMIRA (60 μg) leads to anti-drug antibody formation (ADA) that neutralizes the therapeutic benefit. Only very high doses can then maintain the therapeutic benefit and surmount the neutralizing immune response. For example, it is thought that about 200 μg is needed to effect maximal inhibition of inflammation in an example of such a mouse model (Binder et al., Arthritis & Rheumatism, Vol. 65 (No. 3), March 2013, pp. 608-617).
(§2) The results in FIG. 9A show the antibody titers in the blood of all animals at day 21.

HuTNFαTg [2] = assay: Arthritis scores of limbs in arthritic animals (Example 14); type: in vivo; settings: HUMIRA s.c. weekly weeks 5-10; nanocarriers with first 3 injections
Protocol: Age-matched HuTNFαTg 5 week old female animals were either injected s.c. in the subscapular area with saline (PBS) or 60 μg or 200 μg of HUMIRA weekly (weeks 5-10) or with a mixture of 60 μg of Humira and 0.87 mg of tolerogenic nanoparticles (first dosings) for the first 3 injections (week 5 to 7 of age) followed by 3 weekly injections of HUMIRA alone (same amounts) (second dosings) (weeks 8 to 10 of age). The results in FIG. 11 (left panel) show the antibody titers in the blood of all animals at different time points. […] FIG. 12 illustrates the dosing regimen.

C57BL/6 [3] = assay: Anti-HUMIRA antibody titers in blood; type: in vivo, mice; settings: day 21; 60 μg HUMIRA s.c. weekly; 0.9 mg nanocarrier admixed on day 0 only
Protocol: Control C57BL/6 age-matched (5-6 weeks) females were injected subcutaneously (s.c.) in the front limbs with 60 μg of HUMIRA once a week until day 29 (on d0, 7, 14, 22, 29, across all groups and conditions). […] The results presented in FIG. 3A show the antibody titers in the blood of all animals at day 21. […] At day 29, the animals received another challenge in one hind limb (a further second dosing) while the other hind limb received saline in order to test the local antibody-mediated type I hypersensitivity response. For this, the thickness of the hind limbs were measured with the help of a caliper one hour after the injection.

huTNFaTg [4] = settings: such a mouse model; Binder et al. 2013; cited from earlier work
huTNFaTg [5] = assay: Arthritis scores of limbs in arthritic animals (Example 9); type: in vivo, mice; settings: 60 μg HUMIRA s.c. weekly, weeks 5 to 15 of age; 0.87 mg nanocarriers with first 7 injections
Protocol: as §1, §2

HuTNFαTg [6] = assay: Anti-HUMIRA antibody titers in arthritic animals (Example 14); type: in vivo; settings: HUMIRA s.c. weekly weeks 5-10; 0.87 mg nanoparticles with 60 μg Humira for first 3 injections
Protocol: Anti-HUMIRA immune and neutralizing responses in arthritic animals were evaluated. Transgenic animals overexpressing human tumor necrosis factor alpha (huTNFαTg) develop progressive rheumatoid arthritis over the course of 20 weeks from birth. This process can be prevented by using the fully human anti-human TNFα antibody Adalimumab or HUMIRA. However repetitive administration of the initial therapeutic dose of HUMIRA (60 μg) leads to anti-drug antibody formation (ADA) that neutralizes the therapeutic benefit. Higher quantities of Humira (200 μg can be injected to overcome this antagonizing immune response to allow for the therapeutic effect of Humira. Age-matched HuTNFαTg 5 week old female animals were either injected s.c. in the subscapular area with saline (PBS) or 60 μg or 200 μg of HUMIRA weekly (weeks 5-10) or with a mixture of 60 μg of Humira and 0.87 mg of tolerogenic nanoparticles (first dosings) for the first 3 injections (week 5 to 7 of age) followed by 3 weekly injections of HUMIRA alone (same amounts) (second dosings) (weeks 8 to 10 of age). The results in FIG. 11 (left panel) show the antibody titers in the blood of all animals at different time points. […] FIG. 12 illustrates the dosing regimen.

C57BL/6 [7] = assay: Anti-KRYSTEXXA IgM antibody titers; type: in vivo, mice; settings: 0.9 mg nanocarriers + 40 μg KRYSTEXXA i.v. days −21 and −14; then 100 μg KRYSTEXXA + 20 μg CpG s.c. day 0 to 28
Protocol: All animals received weekly injections from day 0 to day 28 of 100 μg of KRYSTEXXA combined with 20 μg of CpG s.c. in the hind limb (d0, 7, 12, 28).

C57BL/6 [8] = assay: Anti-OVA and anti-KLH IgG antibody titers (Example 7); type: in vivo, mice; settings: day 54; pOVA 2.5 μg i.v. weekly; 0.2 mg nanocarriers admixed days 0, 7, 14
Protocol: The control group of C57BL/6 age-matched (5-6 weeks) female were injected i.v. in the tail vein with 2.5 μg of an immunogenic form of particulate Ovalbumin (pOVA) and 2 μg of Keyhole Limpet Hemocyanin (KLH) s.c. in the hind limb once a week for 49 days (d0, 7, 14, 20, 28, 35, 42, 49).

Molecule: adalimumab [HUMIRA]
- anti-HUMIRA antibody titers (huTNFaTg [1]): robust antibody response
- arthritis scores (disease progression) (HuTNFαTg [2]): significant blockade of the disease progression
- anti-HUMIRA antibody titers (C57BL/6 [3]): robust antibody response against HUMIRA
- dose needed to effect maximal inhibition of inflammation (huTNFaTg [4]): about 200 μg
- arthritis scores (disease progression) (huTNFaTg [5]): significant blockade of the disease progression
- anti-HUMIRA antibody titers (HuTNFαTg [6]): robust anti-HUMIRA antibody response

Molecule: pegloticase [KRYSTEXXA]
- anti-KRYSTEXXA IgM antibody titers (C57BL/6 [7]): develop an immune response against KRYSTEXXA

B1: pOVA: immunogenic form of particulate Ovalbumin (protein, UniProt P01012 2-386, looked up)
Ovalbumin: GSIGAASMEFCFDVFKELKVHHANENIFYCPIAIMSALAMVYLGAKDSTRTQINKVVRFDKLPGFGDSIEAQCGTSVNVHSSLRDILNQITKPNDVYSFSLASRLYAEERYPILPEYLQCVKELYRGGLEPINFQTAADQARELINSWVESQTNGIIRNVLQPSSVDSQTAMVLVNAIVFKGLWEKAFKDEDTQAMPFRVTEQESKPVQMMYQIGLFRVASMASEKMKILELPFASGTMSMLVLLPDEVSGLEQLESIINFEKLTEWTSSNVMEERKIKVYLPRMKMEEKYNLTSVLMAMGITDVFSSSANLSGISSAESLKISQAVHAAHAEINEAGREVVGSAEAGVDAASVSEEFRADHPFLFCIKHIATNAVLFFGRCVSP
modifications: particulate form
notes: immunogenic form of particulate Ovalbumin
- anti-OVA IgG antibody titers (C57BL/6 [8]): robust immune response against OVA and KLH
